Test results taken from ChEMBL document CHEMBL1143176, “Design, synthesis, and biological activity of piperidine diamine derivatives as factor Xa inhibitor” (Bioorg Med Chem Lett, 2008).
≈ marks a conversion by molar mass, not a printed value.

Assays:
[1] = Solubility in japanese pharmacopoeia second fluid at pH 6.8; format: physicochemical
[2] = biological target: Coagulation factor X (Homo sapiens, UniProt P00742); assay: Inhibition of human factor 10a
[3] = system: Plasma; assay: Anticoagulant activity in human plasma assessed as concentration required to double prothrombin time; format: functional
[4] = Tmax in monkey at 1.0 mg/kg, po; format: ADME, organism-based, Macaca mulatta; design: dose 1 mg/kg, route oral; details: rhesus monkey, in vivo
[5] = Cmax in monkey at 1.0 mg/kg, po; format: ADME, organism-based, Macaca mulatta; design: dose 1 mg/kg, route oral; details: rhesus monkey, in vivo
[6] = AUC (0 to 24 hrs) in monkey at 1.0 mg/kg, po; format: ADME, organism-based, Macaca mulatta; design: time < 24 hr, dose 1 mg/kg, route oral; details: rhesus monkey, plasma
[7] = Metabolic stability assessed as half life in human liver microsome; format: ADME; details: liver microsomes
[8] = Metabolic stability assessed as intrinsic clearance in human liver microsome; format: ADME; details: liver microsomes
[9] = system: Rattus norvegicus; assay: Ex vivo inhibition of factor 10a in Wistar rat plasma at 10 mg/kg, po after 2 hrs; format: functional
[10] = system: Rattus norvegicus; assay: Ex vivo inhibition of factor 10a in Wistar rat plasma at 10 mg/kg, po after 1 hr; format: functional
[11] = system: Rattus norvegicus; assay: Ex vivo inhibition of factor 10a in Wistar rat plasma at 10 mg/kg, po after 4 hrs; format: functional
[12] = system: Rattus norvegicus; assay: Ex vivo inhibition of factor 10a in Wistar rat plasma at 10 mg/kg, po after 0.5 hrs; format: functional

Chain of Coagulation factor X (P00742 41-179 limits assumed): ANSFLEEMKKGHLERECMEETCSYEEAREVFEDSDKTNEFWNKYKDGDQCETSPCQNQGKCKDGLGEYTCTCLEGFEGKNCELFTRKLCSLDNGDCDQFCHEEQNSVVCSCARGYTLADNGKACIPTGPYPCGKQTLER
Chain of Coagulation factor X (P00742 235-488 limits assumed): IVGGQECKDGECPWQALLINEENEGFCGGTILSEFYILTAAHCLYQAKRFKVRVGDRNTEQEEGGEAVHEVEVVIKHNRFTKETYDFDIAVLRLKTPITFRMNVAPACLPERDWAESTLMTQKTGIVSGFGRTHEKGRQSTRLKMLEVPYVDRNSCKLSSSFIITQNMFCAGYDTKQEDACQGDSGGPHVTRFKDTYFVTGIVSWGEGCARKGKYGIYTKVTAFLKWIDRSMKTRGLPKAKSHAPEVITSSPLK

| SMILES | solubility [1] [mg/mL] | IC50 [2] [µM] | half-life [7] [min] | CLint scaled [8] [L/h/kg] | Activity [3] [µM] | other results |
| --- | --- | --- | --- | --- | --- | --- |
| CN1CCc2nc(C(=O)NC3CN(S(C)(=O)=O)CCC3NC(=O)c3cc4cc(Cl)ccc4[nH]3)sc2C1 (racemic) | 0.103 (≈ 187 µM) | 0.028 | – | – | 2.5 | – |
| CN1CCc2nc(C(=O)NC3CCNCC3NC(=O)c3cc4cc(Cl)ccc4[nH]3)sc2C1 (racemic) | 0.83 (≈ 1750 µM) | 0.53 | – | – | >20 | – |
| COCC(=O)N1CC[C@H](NC(=O)c2cc3cc(Cl)ccc3[nH]2)[C@H](NC(=O)c2nc3c(s2)CN(C)CC3)C1.Cl | – | – | – | – | – | Tmax [4]: 72 min; Cmax [5]: 0.0364 µg/mL; AUC(0-t) at 24 h [6]: 0.0836 µg·h/mL |
| CC(=O)N1CCC(NC(=O)c2nc3c(s2)CN(C)CC3)C(NC(=O)c2cc3cc(Cl)ccc3[nH]2)C1 (racemic) | 0.29 (≈ 563 µM) | 0.048 | – | – | 5.8 | – |
| CN1CCc2nc(C(=O)NC3CN(C(=O)N(C)C)CCC3NC(=O)c3cc4cc(Cl)ccc4[nH]3)sc2C1 (racemic) | – | – | 6.73 | 5.56 | – | – |
| COCC(=O)N1CCC(NC(=O)c2cc3cc(Cl)ccc3[nH]2)C(NC(=O)c2nc3c(s2)CN(C)CC3)C1 (racemic) | – | – | 13.6 | 2.75 | – | – |
| COCCN1CC[C@H](NC(=O)c2cc3cc(Cl)ccc3[nH]2)[C@H](NC(=O)c2nc3c(s2)CN(C)CC3)C1 | 0.13 (≈ 245 µM) | 0.047 | – | – | 3.8 | – |
| CN1CCc2nc(C(=O)NC3CN(C(=O)OC(C)(C)C)CCC3NC(=O)c3cc4cc(Cl)ccc4[nH]3)sc2C1 (racemic) | 0.003 (≈ 5.23 µM) | 0.01 | 4.44 | 8.42 | 3.5 | – |
| CCNC(=O)N1CC[C@H](NC(=O)c2cc3cc(Cl)ccc3[nH]2)[C@H](NC(=O)c2nc3c(s2)CN(C)CC3)C1 | 0.22 (≈ 404 µM) | 0.0078 | – | – | 0.8 | inhibition in vivo at 10 mg/kg [9]: 5.3%; inhibition in vivo at 10 mg/kg [10]: 11.4%; inhibition in vivo at 10 mg/kg [11]: 4.3%; inhibition in vivo at 10 mg/kg [12]: 16.7% |
| CN1CCc2nc(C(=O)NC3CN(C(=O)CO)CCC3NC(=O)c3cc4cc(Cl)ccc4[nH]3)sc2C1 (racemic) | – | – | 15.1 | 2.48 | – | – |
| CCOC(=O)N1CCC(NC(=O)c2nc3c(s2)CN(C)CC3)C(NC(=O)c2cc3cc(Cl)ccc3[nH]2)C1 (racemic) | 0.037 (≈ 67.9 µM) | 0.11 | – | – | 11 | – |
| CN1CCc2nc(C(=O)N[C@@H]3CCCC[C@@H]3NC(=O)c3cc4cc(Cl)ccc4[nH]3)sc2C1.Cl | – | – | – | – | – | Tmax [4]: 120 min; Cmax [5]: 0.0233 µg/mL; AUC(0-t) at 24 h [6]: 0.0566 µg·h/mL |
| CN1CCc2nc(C(=O)NC3CCN(S(C)(=O)=O)CC3NC(=O)c3cc4cc(Cl)ccc4[nH]3)sc2C1 (racemic) | 0.07 (≈ 127 µM) | 0.045 | – | – | 8 | – |
| CN1CCc2nc(C(=O)N[C@@H]3CN(CC(=O)O)CC[C@@H]3NC(=O)c3cc4cc(Cl)ccc4[nH]3)sc2C1 | 0.723 (≈ 1360 µM) | 0.026 | – | – | 1.8 | – |
| CCC(=O)N1CC[C@H](NC(=O)c2cc3cc(Cl)ccc3[nH]2)[C@H](NC(=O)c2nc3c(s2)CN(C)CC3)C1 | 0.16 (≈ 302 µM) | 0.009 | – | – | 0.78 | – |

Further lines, with some results ahead:

| solubility [1] [mg/mL] | IC50 [2] [µM] | half-life [7] [min] | CLint scaled [8] [L/h/kg] | SMILES | Activity [3] [µM] | other results |
| --- | --- | --- | --- | --- | --- | --- |
| 0.421 (≈ 817 µM) | – | 6.54 | 5.72 | CC(=O)N1CCC(NC(=O)c2cc3cc(Cl)ccc3[nH]2)C(NC(=O)c2nc3c(s2)CN(C)CC3)C1 (racemic) | – | – |
| – | – | 7.22 | 5.18 | CCNC(=O)N1CCC(NC(=O)c2cc3cc(Cl)ccc3[nH]2)C(NC(=O)c2nc3c(s2)CN(C)CC3)C1 (racemic) | – | – |
| 0.51 (≈ 936 µM) | 0.0058 | – | – | COCC(=O)N1CC[C@H](NC(=O)c2cc3cc(Cl)ccc3[nH]2)[C@H](NC(=O)c2nc3c(s2)CN(C)CC3)C1 | 0.78 | inhibition in vivo at 10 mg/kg [9]: 38%; inhibition in vivo at 10 mg/kg [10]: 50%; inhibition in vivo at 10 mg/kg [11]: 16%; inhibition in vivo at 10 mg/kg [12]: 68% |
| < 0.001 | 0.13 | – | – | CN1CCc2nc(C(=O)NC3CCN(C(=O)OC(C)(C)C)CC3NC(=O)c3cc4cc(Cl)ccc4[nH]3)sc2C1 (racemic) | 6.2 | – |
| 0.996 (≈ 2110 µM) | 0.062 | – | – | CN1CCc2nc(C(=O)NC3CNCCC3NC(=O)c3cc4cc(Cl)ccc4[nH]3)sc2C1 (racemic) | 1.3 | – |
| 0.41 (≈ 772 µM) | 0.0093 | – | – | CN1CCc2nc(C(=O)N[C@@H]3CN(C(=O)CO)CC[C@@H]3NC(=O)c3cc4cc(Cl)ccc4[nH]3)sc2C1 | 0.9 | inhibition in vivo at 10 mg/kg [9]: -2.5%; inhibition in vivo at 10 mg/kg [10]: -2%; inhibition in vivo at 10 mg/kg [11]: -7.3%; inhibition in vivo at 10 mg/kg [12]: 0.76% |
| – | – | 6.24 | 5.99 | CN1CCc2nc(C(=O)NC3CN(C(=O)NC(C)(C)C)CCC3NC(=O)c3cc4cc(Cl)ccc4[nH]3)sc2C1 (racemic) | – | – |
| 0.016 (≈ 33.9 µM) | – | 6.42 | 5.83 | CN1CCc2nc(C(=O)N[C@@H]3CCCC[C@@H]3NC(=O)c3cc4cc(Cl)ccc4[nH]3)sc2C1 | – | – |
| – | – | 6.08 | 6.16 | CCC(=O)N1CCC(NC(=O)c2cc3cc(Cl)ccc3[nH]2)C(NC(=O)c2nc3c(s2)CN(C)CC3)C1 (racemic) | – | – |
| 0.043 (≈ 78.9 µM) | 0.0045 | 4.53 | 8.26 | CCOC(=O)N1CCC(NC(=O)c2cc3cc(Cl)ccc3[nH]2)C(NC(=O)c2nc3c(s2)CN(C)CC3)C1 (racemic) | 1.4 | – |
| 0.039 (≈ 68.2 µM) | 0.0048 | – | – | CN1CCc2nc(C(=O)N[C@@H]3CN(C(=O)NC(C)(C)C)CC[C@@H]3NC(=O)c3cc4cc(Cl)ccc4[nH]3)sc2C1 | 0.78 | – |
| 0.028 (≈ 51.4 µM) | 0.056 | – | – | COC(=O)CN1CC[C@H](NC(=O)c2cc3cc(Cl)ccc3[nH]2)[C@H](NC(=O)c2nc3c(s2)CN(C)CC3)C1 | 2.1 | – |
| 0.056 (≈ 103 µM) | – | – | – | CN1CCc2nc(C(=O)N[C@@H]3CN(C(=O)N(C)C)CC[C@@H]3NC(=O)c3cc4cc(Cl)ccc4[nH]3)sc2C1 | – | inhibition in vivo at 10 mg/kg [9]: 73.7%; inhibition in vivo at 10 mg/kg [10]: 78.6%; inhibition in vivo at 10 mg/kg [11]: 68.1%; inhibition in vivo at 10 mg/kg [12]: 80.2% |
| 0.066 (≈ 122 µM) | 0.0056 | – | – | CC(C)C(=O)N1CC[C@H](NC(=O)c2cc3cc(Cl)ccc3[nH]2)[C@H](NC(=O)c2nc3c(s2)CN(C)CC3)C1 | 1.1 | – |
| – | – | 6.36 | 5.89 | CC(C)C(=O)N1CCC(NC(=O)c2cc3cc(Cl)ccc3[nH]2)C(NC(=O)c2nc3c(s2)CN(C)CC3)C1 (racemic) | – | – |
| 0.017 (≈ 36 µM) | – | 7.7 | 4.86 | CN1CCc2nc(C(=O)NC3CCCCC3NC(=O)c3cc4cc(Cl)ccc4[nH]3)sc2C1 (racemic) | 4.4 | – |
